Experimental data reported in patent publication US10105357B2, “Indication of antibiotic drugs for preparation of cancer inhibition pharmaceutical composition” (LAUNX BIOMEDICAL CO., LTD., priority 2014, dated 2018).
Read-outs that look alike come from different tables or passages of the source.

Key:
Type in all cases: cell-based, human
cancer cell lines = test: Cell viability analysis (WST-1) on cancer cell lines; conditions: drug 10 μM, 72 hours, WST-1; Table 3
[1] = tested on: LoVo (Colorectal Adenocarcinoma); test: Cell viability analysis, colon cancer LoVo; conditions: for viability at 10 µM: Homo sapiens, 72 h
BxPC-3 = test: Cell viability analysis, pancreatic cancer BxPC-3
TOV-21G = test: Cell viability analysis, ovarian cancer TOV-21G
[2] = tested on: SAS (Tongue squamous cell carcinoma); test: Cell viability analysis, tongue cancer SAS
T24 = test: Cell viability analysis, bladder cancer T24
[3] = tested on: A375 (Amelanotic Melanoma); test: Cell viability analysis, skin cancer A375
[4] = tested on: A549 (Lung Adenocarcinoma); test: Cell viability analysis, lung cancer A549
[5] = tested on: MCF7 (Mammary Gland, Adenocarcinoma); test: Cell viability analysis, breast cancer MCF7
[6] = tested on: TSGH-8301 (Urinary Bladder Carcinoma); test: Cell viability analysis, bladder cancer TSGH-8301
[7] = tested on: HepG2 (Hepatocellular Carcinoma); test: Cell viability analysis, hepatic cancer HepG2
[8] = tested on: C-33A (Cervical carcinoma); test: Cell viability analysis, cervical cancer C-33A
NIH: OVCAR-3 = test: Cell viability analysis, ovarian cancer NIH: OVCAR-3
[9] = tested on: HeLa (Cervix Adenocarcinoma); test: Cell viability analysis, cervical cancer HeLa
[10] = tested on: 786-O (Renal adenocarcinoma); test: Cell viability analysis, renal cancer 786-O
[11] = tested on: MDA-MB-231 (Mammary Gland, Adenocarcinoma); test: Cell viability analysis, breast cancer MDA-MB-231
[12] = tested on: HI650 (Lung Adenocarcinoma); test: Cell viability analysis, lung cancer HI650
[13] = tested on: BCC (basal cell carcinoma); test: Cell viability analysis, skin cancer BCC
[14] = tested on: MKN-45 (Gastric Adenocarcinoma); test: Cell viability analysis, gastric cancer MKN-45
[15] = tested on: AGS (Gastric Adenocarcinoma); test: Cell viability analysis, gastric cancer AGS
U-2OS = test: Cell viability analysis, osteosarcoma U-2OS
AsPC-1 = test: Cell viability analysis, pancreatic cancer AsPC-1
[16] = tested on: Hep3B (hepatocellular carcinoma); test: Cell viability analysis, hepatic cancer Hep3B; conditions: Hep3B
[17] = tested on: PC3 (p53−) (Prostate Adenocarcinoma); test: Cell viability analysis, prostate cancer PC3
[18] = drug 10 μM, 72 hours, WST-1, OD450 nm
[19] = NIH-OVCAR-3, repeated experiment

`CCCCCCCCCCCCCCCC[N+](C)(C)C.[Br-]` [Cetrimonium Bromide] was tested, and the “inhibition effect on different cancer cell lines” value (cancer cell lines) was “significant inhibition effect”, the “The results of antibiotic drug inhibiting cancer cell lines (cell viability analysis), LoVo” value ([1]; LoVo, repeated experiment) was 51.72 and the “cell viability (survival rate), LoVo” value [1, 18] was 55.4. The “The results of antibiotic drug inhibiting cancer cell lines (cell viability analysis), BxPC-3” value (BxPC-3; BxPC-3, repeated experiment) was 25.89, the “The results of antibiotic drug inhibiting cancer cell lines (cell viability analysis), TOV-21G” value (TOV-21G; TOV-21G, repeated experiment) was 15.69 and the “The results of antibiotic drug inhibiting cancer cell lines (cell viability analysis), SAS” value ([2]; SAS, repeated experiment) was 21.73. The “The results of antibiotic drug inhibiting cancer cell lines (cell viability analysis), T24” value (T24; T24, repeated experiment) was 19.1, the “The results of antibiotic drug inhibiting cancer cell lines (cell viability analysis), A375” value ([3]; A375, repeated experiment) was 12.93 and the “The results of antibiotic drug inhibiting cancer cell lines (cell viability analysis), A549” value ([4]; A549, repeated experiment) was 20.71. The “cell viability (survival rate), A549” value [4, 18] was 25.0, the “The results of antibiotic drug inhibiting cancer cell lines (cell viability analysis), MCF-7” value ([5]; MCF-7, repeated experiment) was 47.47 and the “The results of antibiotic drug inhibiting cancer cell lines (cell viability analysis), TSGH-8301” value ([6]; TSGH-8301, repeated experiment) was 22.33. The “cell viability (survival rate), TSGH” value [6, 18] was 34.8, the “The results of antibiotic drug inhibiting cancer cell lines (cell viability analysis), HepG2” value ([7]; HepG2, repeated experiment) was 56.6 and the “The results of antibiotic drug inhibiting cancer cell lines (cell viability analysis), C-33A” value ([8]; C-33A, repeated experiment) was 35.29. The “The results of antibiotic drug inhibiting cancer cell lines (cell viability analysis), NIH-OVCAR-3” value (NIH: OVCAR-3; [19]) was 56.47, the “The results of antibiotic drug inhibiting cancer cell lines (cell viability analysis), HeLa” value ([9]; HeLa, repeated experiment) was 20.73 and the “cell viability (survival rate), HeLa” value [9, 18] was 42.6. For the same molecule, the “The results of antibiotic drug inhibiting cancer cell lines (cell viability analysis), 786-O” value ([10]; 786-O, repeated experiment) was 16.85, the “The results of antibiotic drug inhibiting cancer cell lines (cell viability analysis), MDA-MB231” value ([11]; MDA-MB231, repeated experiment) was 33.73 and the “cell viability (survival rate), H1650” value [12, 18] was 54.6. For the same molecule, the “The results of antibiotic drug inhibiting cancer cell lines (cell viability analysis), BCC” value ([13]; BCC, repeated experiment) was 23.59, the “The results of antibiotic drug inhibiting cancer cell lines (cell viability analysis), MKN-45” value ([14]; MKN-45, repeated experiment) was 35.25 and the “The results of antibiotic drug inhibiting cancer cell lines (cell viability analysis), AGS” value ([15]; AGS, repeated experiment) was 20.83. The “cell viability (survival rate), AGS” value [15, 18] was 42.4.
In the case of `Cc1onc(-c2ccccc2Cl)c1C(=O)N[C@@H]1C(=O)N2[C@@H]1SC(C)(C)[C@@H]2C(=O)[O-].[Na+]` [Cloxacillin sodium (Cloxacap)], the “The results of antibiotic drug inhibiting cancer cell lines (cell viability analysis), LoVo” value ([1]; LoVo, repeated experiment) is reported as 98.38, the “The results of antibiotic drug inhibiting cancer cell lines (cell viability analysis), BxPC-3” value (BxPC-3; BxPC-3, repeated experiment) is reported as 69.13 and the “The results of antibiotic drug inhibiting cancer cell lines (cell viability analysis), TOV-21G” value (TOV-21G; TOV-21G, repeated experiment) is reported as 105.9. The “The results of antibiotic drug inhibiting cancer cell lines (cell viability analysis), SAS” value ([2]; SAS, repeated experiment) was 70.4, the “The results of antibiotic drug inhibiting cancer cell lines (cell viability analysis), T24” value (T24; T24, repeated experiment) was 100.9 and the “The results of antibiotic drug inhibiting cancer cell lines (cell viability analysis), A375” value ([3]; A375, repeated experiment) was 110.7. The “The results of antibiotic drug inhibiting cancer cell lines (cell viability analysis), A549” value ([4]; A549, repeated experiment) was 98.33, the “The results of antibiotic drug inhibiting cancer cell lines (cell viability analysis), MCF-7” value ([5]; MCF-7, repeated experiment) was 103.7 and the “The results of antibiotic drug inhibiting cancer cell lines (cell viability analysis), C-33A” value ([8]; C-33A, repeated experiment) was 104.6. The “The results of antibiotic drug inhibiting cancer cell lines (cell viability analysis), NIH-OVCAR-3” value (NIH: OVCAR-3; [19]) was 106.9, the “The results of antibiotic drug inhibiting cancer cell lines (cell viability analysis), HeLa” value ([9]; HeLa, repeated experiment) was 120.1 and the “The results of antibiotic drug inhibiting cancer cell lines (cell viability analysis), 786-O” value ([10]; 786-O, repeated experiment) was 106.1. The “The results of antibiotic drug inhibiting cancer cell lines (cell viability analysis), MDA-MB231” value ([11]; MDA-MB231, repeated experiment) was 101.6, the “The results of antibiotic drug inhibiting cancer cell lines (cell viability analysis), H1650” value ([12]; H1650, repeated experiment) was 86.43 and the “The results of antibiotic drug inhibiting cancer cell lines (cell viability analysis), U2OS” value (U-2OS; U2OS, repeated experiment) was 69.87. The “The results of antibiotic drug inhibiting cancer cell lines (cell viability analysis), BCC” value ([13]; BCC, repeated experiment) was 116.6, the “The results of antibiotic drug inhibiting cancer cell lines (cell viability analysis), AsPC-1” value (AsPC-1; AsPC-1, repeated experiment) was 80 and the “The results of antibiotic drug inhibiting cancer cell lines (cell viability analysis), Hep3B” value ([16]; repeated experiment) was 118.4. The “The results of antibiotic drug inhibiting cancer cell lines (cell viability analysis), MKN-45” value ([14]; MKN-45, repeated experiment) was 111.3.
For `CC(C)c1nc(CN(C)C(=O)N[C@H](C(=O)N[C@@H](Cc2ccccc2)C[C@H](O)[C@H](Cc2ccccc2)NC(=O)OCc2cncs2)C(C)C)cs1` [Ritonavir], the “inhibition effect on different cancer cell lines” value (cancer cell lines) was “significant inhibition effect”, the viability at 10 µM ([1]; LoVo, read-out: The results of antibiotic drug inhibiting cancer cell lines (cell viability analysis), LoVo, repeated experiment) was 90.2% and the viability at 10 µM ([1]; LoVo, read-out: cell viability (survival rate), LoVo, drug 10 μM, 72 hours, WST-1, OD450 nm) was 82.3%. It also gave a viability at 10 µM (BxPC-3; Homo sapiens, BXPC-3, 72 h, read-out: The results of antibiotic drug inhibiting cancer cell lines (cell viability analysis), BxPC-3) of 89.6%, a viability at 10 µM ([2]; Homo sapiens, 72 h, read-out: The results of antibiotic drug inhibiting cancer cell lines (cell viability analysis), SAS) of 73.2% and a viability at 10 µM (T24; Homo sapiens, T-24, 72 h, read-out: The results of antibiotic drug inhibiting cancer cell lines (cell viability analysis), T24) of 97.3%. For the same molecule, the viability at 10 µM ([8]; Homo sapiens, C-33-A, 72 h, read-out: The results of antibiotic drug inhibiting cancer cell lines (cell viability analysis), C-33A) was 111%, the viability at 10 µM (NIH: OVCAR-3; Homo sapiens, OVCAR-3, 72 h, read-out: The results of antibiotic drug inhibiting cancer cell lines (cell viability analysis), NIH-OVCAR-3) was 92.2% and the viability at 10 µM ([10]; Homo sapiens, 786-0, 72 h, read-out: The results of antibiotic drug inhibiting cancer cell lines (cell viability analysis), 786-O) was 102%. The viability at 10 µM ([11]; Homo sapiens, MDA-MB-231, 72 h, read-out: The results of antibiotic drug inhibiting cancer cell lines (cell viability analysis), MDA-MB231) was 102%, the viability at 10 µM (U-2OS; Homo sapiens, U2OS, 72 h, read-out: The results of antibiotic drug inhibiting cancer cell lines (cell viability analysis), U2OS) was 87.1% and the viability at 10 µM ([13]; Homo sapiens, 72 h, read-out: The results of antibiotic drug inhibiting cancer cell lines (cell viability analysis), BCC) was 86.4%. For the same molecule, the viability at 10 µM (AsPC-1; Homo sapiens, ASPC1, 72 h, read-out: The results of antibiotic drug inhibiting cancer cell lines (cell viability analysis), AsPC-1) was 88.6% and the viability at 10 µM ([16]; Homo sapiens, 72 h, read-out: The results of antibiotic drug inhibiting cancer cell lines (cell viability analysis), Hep3B) was 102%.
Colistimethate Sodium was tested, and the “inhibition effect on different cancer cell lines” value (cancer cell lines) was “significant inhibition effect”, the “The results of antibiotic drug inhibiting cancer cell lines (cell viability analysis), LoVo” value [1] was 85.06 and the “The results of antibiotic drug inhibiting cancer cell lines (cell viability analysis), BxPC-3” value (BxPC-3) was 76.87. For the same molecule, the “The results of antibiotic drug inhibiting cancer cell lines (cell viability analysis), TOV-21G” value (TOV-21G) was 64.02, the “The results of antibiotic drug inhibiting cancer cell lines (cell viability analysis), PC-3” value [17] was 101.1 and the “The results of antibiotic drug inhibiting cancer cell lines (cell viability analysis), SAS” value [2] was 77.78. The “The results of antibiotic drug inhibiting cancer cell lines (cell viability analysis), T24” value (T24) was 108.3, the “The results of antibiotic drug inhibiting cancer cell lines (cell viability analysis), A375” value [3] was 94.89 and the “The results of antibiotic drug inhibiting cancer cell lines (cell viability analysis), A549” value [4] was 89.46. The “The results of antibiotic drug inhibiting cancer cell lines (cell viability analysis), MCF-7” value [5] was 74.61, the “The results of antibiotic drug inhibiting cancer cell lines (cell viability analysis), TSGH-8301” value [6] was 111.7 and the “The results of antibiotic drug inhibiting cancer cell lines (cell viability analysis), HepG2” value [7] was 107.4. For the same molecule, the “The results of antibiotic drug inhibiting cancer cell lines (cell viability analysis), C-33A” value [8] was 107.5, the “The results of antibiotic drug inhibiting cancer cell lines (cell viability analysis), NIH-OVCAR-3” value (NIH: OVCAR-3) was 103.4 and the “The results of antibiotic drug inhibiting cancer cell lines (cell viability analysis), HeLa” value [9] was 77.79. For the same molecule, the “The results of antibiotic drug inhibiting cancer cell lines (cell viability analysis), 786-O” value [10] was 86.46, the “The results of antibiotic drug inhibiting cancer cell lines (cell viability analysis), MDA-MB231” value [11] was 76.75 and the “The results of antibiotic drug inhibiting cancer cell lines (cell viability analysis), H1650” value [12] was 82.62. The “The results of antibiotic drug inhibiting cancer cell lines (cell viability analysis), U2OS” value (U-2OS) was 83.33, the “The results of antibiotic drug inhibiting cancer cell lines (cell viability analysis), BCC” value [13] was 77.04 and the “The results of antibiotic drug inhibiting cancer cell lines (cell viability analysis), AsPC-1” value (AsPC-1) was 82.31. The “The results of antibiotic drug inhibiting cancer cell lines (cell viability analysis), MKN-45” value [14] was 104.8 and the “The results of antibiotic drug inhibiting cancer cell lines (cell viability analysis), AGS” value [15] was 87.05.
